Test results taken from ChEMBL document CHEMBL1139571, “Synthesis and characterization of azole isoflavone inhibitors of aromatase” (Bioorg Med Chem Lett, 2005).

Biological target: T1, Aromatase (Homo sapiens, UniProt P11511)
T1 sequence (P11511 whole entry): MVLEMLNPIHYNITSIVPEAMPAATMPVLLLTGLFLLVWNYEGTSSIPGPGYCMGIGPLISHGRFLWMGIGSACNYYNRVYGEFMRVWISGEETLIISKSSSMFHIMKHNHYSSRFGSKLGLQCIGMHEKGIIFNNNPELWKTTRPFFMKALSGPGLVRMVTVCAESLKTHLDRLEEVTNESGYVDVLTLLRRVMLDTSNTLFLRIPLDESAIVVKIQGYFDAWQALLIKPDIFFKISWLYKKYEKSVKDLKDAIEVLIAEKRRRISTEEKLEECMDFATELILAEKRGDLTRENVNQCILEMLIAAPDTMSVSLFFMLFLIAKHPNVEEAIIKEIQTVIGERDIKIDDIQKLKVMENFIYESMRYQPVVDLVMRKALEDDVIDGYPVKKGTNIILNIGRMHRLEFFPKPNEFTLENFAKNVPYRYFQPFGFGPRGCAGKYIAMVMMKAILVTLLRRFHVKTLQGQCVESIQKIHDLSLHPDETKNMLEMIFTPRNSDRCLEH
Description: Inhibitory concentration against human placental aromatase by deutirium oxide release

IC50: > 50 µM
Structure (SMILES): COc1ccc2c(=O)c(-c3ccccc3)c(Sc3nccn3C)oc2c1
